Tested on: V gamma 9+ T-cells (gamma/delta T-cells)
Experiment: Activation of gamma/delta T-cells: CD25 expression on V gamma 9+ T-cells of peripheral blood lymphocytes, flow cytometry
Format: cell-based, human
Conditions: peripheral blood lymphocytes of healthy donors, 72 hours incubation with IL-2, CD25 activation marker; IPP positive control 10 μM
Description: Lymphocytes were obtained from the peripheral blood of healthy donors by Ficoll density gradient centrifugation. For each test, 2×10^5 of the cells so obtained were seeded in a volume of 0.2 ml of RPMI-1640 medium (Life Technologies) that was enriched with 25 mM HEPES, 2 mM L-glutamine, 0.025 mg/ml of gentamicin, 100 U/ml of human interleukin-2 (IL-2) (all from Life Technologies) and 10% human AB serum (Bavarian Red Cross). The test fractions were added in various dilutions, and isopentenyl diphosphate (IPP) from Sigma was used in a final concentration of 10 μM as a positive control. Incubation was effected in the incubator with 5% CO2 at 37° C. After 72 hours the cells were harvested and analysed in a flow cytometer. In so doing, the expression of the CD25 activation marker on the surface of V gamma 9^+ T-cells was measured with the aid of the monoclonal antibodies CD25-PE (B1.49.9), V gamma 9-FITC (lmmu360) and CD3-PC5 (UCHT1) supplied by Beckman-Coulter.
Lymphocytes were obtained from the peripheral blood of healthy donors by Ficoll density gradient centrifugation. […] After 72 hours the cells were harvested and analysed in a flow cytometer. In so doing, the expression of the CD25 activation marker on the surface of V gamma 9^+ T-cells was measured with the aid of the monoclonal antibodies CD25-PE (B1.49.9), V gamma 9-FITC (Immu360) and CD3-PC5 (UCHT1) supplied by Beckman-Coulter.

| Compound | activity relative to IPP (times more active than IPP) |
| --- | --- |
| CC(=CCCP(=O)([O-])CP(=O)([O-])[O-])CO.[Na+].[Na+].[Na+] [compound 19] | about 500 times |
| CC(=CCCP(=O)([O-])OP(=O)([O-])[O-])CO.[Na+].[Na+].[Na+] [compound 15] | about 500 times |

From US7399756B2, “Organo-phosphorous compounds for activating gamma/delta T cells” (Bioagency AG, priority 2001, dated 2008)
